Data: patent US20180244699A1, “1-HYDROXY-3H-2,1-BENZOXABOROLE DERIVATIVES AND THEIR USE AS MICROBIOCIDES” (Syngenta Participations AG, priority 2015, published 2018)

How the values were obtained:
[1] = system: Glomerella lagenarium (Colletotrichum lagenarium); test: Glomerella lagenarium (Colletotrichum lagenarium) / liquid culture (anthracnose); format: cell-based; settings: Colletotrichum orbiculare, growth inhibition photometrically 3-4 days after application, compared to untreated control
Method: (§1) 3. Glomerella lagenarium (Colletotrichum lagenarium)/Liquid Culture (Anthracnose) Conidia of the fungus from cryogenic storage are directly mixed into nutrient broth (PDB potato dextrose broth). After placing a (DMSO) solution of test compound into a microtiter plate (96-well format), the nutrient broth containing the fungal spores is added. The test plates are incubated at 24° C. and the inhibition of growth is measured photometrically 3-4 days after application.

Gaeumannomyces graminis = Gaeumannomyces graminis / liquid culture (take-all of cereals); format: cell-based; settings: growth inhibition photometrically 4-5 days after application, compared to untreated control
Procedure, shortened: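 Mycelial fragments from cryogenic storage in potato dextrose broth added to compound in DMSO, 96-well format. Incubated at 24° C; growth inhibition read photometrically 4-5 days after application.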

[2] = system: Monographella nivalis (Microdochium nivale); test: Monographella nivalis (Microdochium nivale) / liquid culture (foot rot cereals); format: cell-based; settings: growth inhibition photometrically 4-5 days after application, compared to untreated control
Procedure, shortened: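 Conidia from cryogenic storage were mixed into potato dextrose broth and added to wells holding test compound in DMSO. Incubation was at 24° C, with growth inhibition measured photometrically 4-5 days after application.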

[3] = system: Mycosphaerella arachidis (Cercospora arachidicola); test: Mycosphaerella arachidis (Cercospora arachidicola) / liquid culture (early leaf spot); format: cell-based; settings: growth inhibition photometrically 4-5 days after application, compared to untreated control
Method: as §1, with “9. Mycosphaerella arachidis (Cercospora arachidicola)/Liquid” for “3. Glomerella lagenarium (Colletotrichum lagenarium)/Liquid”, “(Early Leaf Spot)” for “(Anthracnose)”, “determined” for “measured”, “4-5” for “3-4”

Phytophthora infestans = test: whole plant or invertebrate; format: in vivo; settings: in Solanum lycopersicum, foliar, read-out: control of Phytophthora infestans
Pythium ultimum = Pythium ultimum / liquid culture (seedling damping off); format: cell-based; settings: Globisporangium ultimum, growth inhibition photometrically 2-3 days after application, compared to untreated control
Procedure, shortened: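 Fungal mycelia fragments and oospores from fresh liquid culture mixed into potato dextrose broth and added to DMSO solutions of test compound. Incubated at 24° C.; growth inhibition read photometrically 2-3 days after application.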

[4] = system: Thanatephorus cucumeris (Rhizoctonia solani); test: Thanatephorus cucumeris (Rhizoctonia solani) / liquid culture (foot rot, damping-off); format: cell-based; settings: growth inhibition photometrically 3-4 days after application, compared to untreated control
Method: 16. Thanatephorus cucumeris (Rhizoctonia solani)/Liquid Culture (Foot Rot, Damping-Off) Mycelia fragments of a newly grown liquid culture of the fungus are directly mixed into nutrient broth (PDB potato dextrose broth). After placing a (DMSO) solution of the test compounds into a microtiter plate (96-well format), the nutrient broth containing the fungal material is added. The test plates are incubated at 24° C. and the inhibition of growth is determined photometrically 3-4 days after application.

Sclerotinia sclerotiorum = Sclerotinia sclerotiorum / liquid culture (cottony rot); format: cell-based; settings: growth inhibition photometrically 3-4 days after application, compared to untreated control
Method: 17. Sclerotinia sclerotiorum/Liquid Culture (Cottony Rot) Mycelia fragments of a newly grown liquid culture of the fungus are directly mixed into nutrient broth (PDB potato dextrose broth). After placing a (DMSO) solution of test compound into a microtiter plate (96-well format) the nutrient broth containing the fungal material is added. The test plates are incubated at 24° C. and the inhibition of growth is determined photometrically 3-4 days after application.

[5] = system: Mycosphaerella graminicola (Septoria tritici); test: Mycosphaerella graminicola (Septoria tritici) / liquid culture (Septoria blotch); format: cell-based; settings: Zymoseptoria tritici, growth inhibition photometrically 4-5 days after application, compared to untreated control
Method: as §1, with “18. Mycosphaerella graminicola (Septoria tritici)/Liquid” for “3. Glomerella lagenarium (Colletotrichum lagenarium)/Liquid”, “(Septoria Blotch)” for “(Anthracnose)”, “determined” for “measured”, “4-5” for “3-4”

[6] = system: Puccinia recondite f. sp. tritici; test: Puccinia recondite f. sp. tritici / wheat / leaf disc preventative (brown rust); format: in vivo; settings: foliar, wheat leaf segments, inoculated 1 day after application, compared to untreated control
Method: 13. Puccinia recondite f. Sp. Tritici/Wheat/Leaf Disc Preventative (Brown Rust) Wheat leaf segments cv. Kanzler are placed on agar in multiwell plates (24-well format) and sprayed with the formulated test compound diluted in water. The leaf disks are inoculated with a spore suspension of the fungus 1 day after application. The inoculated leaf segments are incubated at 19° C. and 75% rh under a light regime of 12 h light/12 h darkness in a climate cabinet and the activity of a compound is assessed as percent disease control compared to untreated when an appropriate level of disease damage appears in untreated check leaf segments (7-9 days after application).

[7] = system: Blumeria graminis f. sp. tritici (Erysiphe graminis f. sp. tritici); test: Blumeria graminis f. sp. tritici / wheat / leaf disc preventative (powdery mildew on wheat); format: in vivo; settings: 200 ppm, wheat leaf segments, inoculated 1 day after application, compared to untreated control
Method: 4. Blumeria Graminis f. Sp. Tritici (Erysiphe graminis f. Sp. Tritici)/Wheat/Leaf Disc Preventative (Powdery Mildew on Wheat)
Wheat leaf segments cv. Kanzler are placed on agar in a multiwell plate (24-well format) and sprayed with the formulated test compound diluted in water. The leaf disks are inoculated by shaking powdery mildew infected plants above the test plates 1 day after application. The inoculated leaf disks are incubated at 20° C. and 60% rh under a light regime of 24 h darkness followed by 12 h light/12 h darkness in a climate chamber and the activity of a compound is assessed as percent disease control compared to untreated when an appropriate level of disease damage appears on untreated check leaf segments (6-8 days after application).

Pyrenophora teres = Pyrenophora teres / barley / leaf disc preventative (net blotch); format: in vivo; settings: 200 ppm, barley leaf segments, inoculated 2 days after application, compared to untreated control
Method: 14. Pyrenophora teres/Barley/Leaf Disc Preventative (Net Blotch) Barley leaf segments cv. Hasso are placed on agar in a multiwell plate (24-well format) and sprayed with the formulated test compound diluted in water. The leaf segments are inoculated with a spore suspension of the fungus 2 days after application. The inoculated leaf segments are incubated at 20° C. and 65% rh under a light regime of 12 h light/12 h darkness in a climate cabinet and the activity of a compound is assessed as disease control compared to untreated when an appropriate level of disease damage appears in untreated check leaf segments (5-7 days after application).

Compound	inhibition of growth at 20 ppm [1] [%]	inhibition of growth at 20 ppm (Gaeumannomyces graminis) [%]	inhibition of growth at 20 ppm [2] [%]	inhibition of growth at 20 ppm [3] [%]	pest or weed control at 200 ppm (Phytophthora infestans) [%]	inhibition of growth at 20 ppm (Pythium ultimum) [%]	inhibition of growth at 20 ppm [4] [%]	inhibition of growth at 20 ppm (Sclerotinia sclerotiorum) [%]	inhibition of growth at 20 ppm [5] [%]	melting point [°C]	pest or weed control at 200 ppm [6] [%]	control of Blumeria graminis f. sp. tritici [7]	control of Pyrenophora teres (Pyrenophora teres)
COC(=O)c1ccc2c(c1OC)B(O)OC2 [Compound 1, methyl 1-hydroxy-7-methoxy-3H-2,1-benzoxaborole-6-carboxylate]	≥ 80	≥ 80	≥ 80	≥ 80	≥ 80	≥ 80	≥ 80	≥ 80	≥ 80				
COC(=O)c1ccc2c(c1O)B(O)OC2 [Compound 2, methyl 1,7-dihydroxy-3H-2,1-benzoxaborole-6-carboxylate]	≥ 80	≥ 80	≥ 80	≥ 80	≥ 80	≥ 80	≥ 80	≥ 80	≥ 80	146 to 148			
COC(=O)c1ccc2c(c1Cl)B(O)OC2 [Compound 3, methyl 7-chloro-1-hydroxy-3H-2,1-benzoxaborole-6-carboxylate]	≥ 80		≥ 80	≥ 80	≥ 80	≥ 80	≥ 80	≥ 80	≥ 80		≥ 80		
CCOC(=O)c1ccc2c(c1Cl)B(O)OC2 [Compound 9, ethyl 7-chloro-1-hydroxy-3H-2,1-benzoxaborole-6-carboxylate]	≥ 80	≥ 80	≥ 80		≥ 80	≥ 80	≥ 80		≥ 80	132 to 133	≥ 80		
COc1c(C(=O)NC(C)c2ncc(F)cc2F)ccc2c1B(O)OC2 (centres unmarked) [Compound 20, N-[1-(3,5-difluoro-2-pyridyl)ethyl]-1-hydroxy-7-methoxy-3H-2,1-benzoxaborole-6-carboxamide]												at least 80%	
CCc1ccc(NC(=O)c2ccc3c(c2OC)B(O)OC3)cc1 [Compound 29, N-(4-ethylphenyl)-1-hydroxy-7-methoxy-3H-2,1-benzoxaborole-6-carboxamide]	≥ 80		≥ 80			≥ 80			≥ 80				at least 80%
COc1c(C(=O)OCn2cccn2)ccc2c1B(O)OC2 [Compound 86, pyrazol-1-ylmethyl 1-hydroxy-7-methoxy-3H-2,1-benzoxaborole-6-carboxylate]	≥ 80	≥ 80	≥ 80	≥ 80	≥ 80	≥ 80	≥ 80	≥ 80	≥ 80				
COc1c(C(=O)O)ccc2c1B(O)OC2 [Compound 131, 1-hydroxy-7-methoxy-3H-2,1-benzoxaborole-6-carboxylic acid]										181 to 182.4			
